In assay [1] the test system is puccinia recondite-causing germs. Nature of the assay: Puccinia Recondite control effect test (spray on wheat). The class given is in vivo.
Assay [2] shares this test system. To be noted: in vivo.
For another assay, the system named is gray mold fungi. As to the kind of experiment: Cucumber gray mold disease control effect test. The class given is in vivo, Botrytis cinerea. To be noted: 100 g/ha; spray on cotyledon cucumber; 4 days after the inoculation. As to the method:
The compounds of the present invention were adjusted to a predetermined concentration ([…]) according to Test Example 2 in a cotyledon cucumber (variety: Sagami Hanjiro Cucumber) cultivated using a rectangular plastic pot (6 cm×6 cm), and sprayed at a ratio of 1,000 L/ha. After air-drying the spray leaves, a paper disc (8 mm in diameter) impregnated with the spore solution of gray mold fungi was placed and kept at 20° C. under high humidity conditions. On 4 days after the inoculation, a morbidity of cucumber gray mold disease was examined, and a control value was calculated by the following Equation. Control value (%)=(1−average morbidity of sprayed area/average morbidity of unsprayed area)×100
In addition, the morbidity was determined based on the following Table 12.

Another assay deals with Septoria tritici. To be noted: in vivo.
Where [3] appears, read: 3.13 g/ha, spray on second leaf stage wheat, 14 days after the inoculation.

Procedure for Septoria tritici: The severity of flag leaf and second leaf was evaluated after 50 days lapsed after the second spraying. The control value was calculated from the average severity of the flag leaf and the second leaf. Control value (%)=(1−average severity of treated area/average severity of untreated area)×100

On to `COC(=O)C(O)(Cn1cncn1)c1ccc(Oc2ccc(Cl)cc2)cc1Cl` (stereo not shown) [Compound I-1, methyl 2-hydroxy-2-(2-chloro-4-(4-chlorophenoxy)phenyl)-3-(1H-1,2,4-triazol-1-yl)propanoate], for which, in assay [1] (setting [3]), the control value was 73%. In assay [2], the “Control value (%)” value amounted to 99%.
Regarding `COC(=O)C(O)(Cn1cncn1)c1ccc(Oc2cccc(Cl)c2)cc1Cl` (stereo not shown) [Compound I-20, methyl 2-(2-chloro-4-(3-chlorophenoxy)phenyl)-2-hydroxy-3-(1H-1,2,4-triazol-1-yl)propanoate], in assay [1] (setting [3]), the control value was found to be 80%.
In the case of `COC(=O)C(O)(Cn1cncn1)c1ccc(Oc2ccccc2)cc1` (stereo not shown) [control compound B, methyl 2-hydroxy-2-(4-phenoxyphenyl)-3-(1H-1,2,4-triazol-1-yl)propanoate], in the assay on gray mold fungi, the control value was determined as 0%.
On to `CC(O)(Cn1cncn1)c1ccc(Oc2ccc(Cl)cc2)cc1C(F)(F)F` (stereo not shown), for which the control value in assay [1] (in vivo) is reported as 20%; in the assay on Septoria tritici it was 88%. The “Control value (%)” value in assay [2] came out at 86%.
